Measured values taken from PubChem BioAssay AID330 (DTP/NCI, 2004).
Inconclusive results and toxic doses are left out.

System: P388 leukemia ip, CD2F1 mice, survival T/C
Assay: NCI In Vivo Anticancer Drug Screen. Data for tumor model P388 Leukemia (intraperitoneal) in CD2F1 (CDF1) mice
Conditions: endpoint: median survival time, higher = longer survival
In short: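 Mice carrying the transplanted tumor received test compound or vehicle. Survival was recorded in each group, and the value is the treated-group measurement divided by that of the vehicle-treated control group.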

[1] = dose: 25.0 mg/kg/injection, schedule: Q04DX003 (ip), vehicle: saline with Tween-80
[2] = dose: 50.0 mg/kg/injection, schedule: Q01DX009 (ip), vehicle: saline with Tween-80
[3] = dose: 50.0 mg/kg/injection, schedule: Q04DX003 (ip), vehicle: saline with Tween-80
[4] = dose: 100.0 mg/kg/injection, schedule: Q01DX009 (ip), vehicle: saline with Tween-80
[5] = dose: 100.0 mg/kg/injection, schedule: Q04DX003 (ip), vehicle: saline with Tween-80

CCOc1cccc2c1C(=O)c1c(OCC)c3c(c(OCC)c1C2=O)CC(O)(C(C)=O)CC3O (configuration not stated)
T/C (dose: 1.56 mg/kg/injection, schedule: Q01DX009 (ip), vehicle: other): 99 % of control | T/C (dose: 3.13 mg/kg/injection, schedule: Q01DX009 (ip), vehicle: other): 102 % of control | T/C (dose: 6.25 mg/kg/injection, schedule: Q01DX009 (ip), vehicle: other): 93 % of control | T/C (dose: 12.5 mg/kg/injection, schedule: Q01DX009 (ip), vehicle: other): 96 % of control | T/C (dose: 25.0 mg/kg/injection, schedule: Q01DX009 (ip), vehicle: other): 90 % of control

CCCCCCCCCCCCCC[N+](C)(CC(=O)[O-])Cc1ccccc1 (configuration not stated)
T/C (dose: 15.0 mg/kg/injection, schedule: Q01DX005 (ip), vehicle: saline with Tween-80): 108 % of control | T/C (dose: 30.0 mg/kg/injection, schedule: Q01DX005 (ip), vehicle: saline with Tween-80): 93 % of control | T/C (dose: 60.0 mg/kg/injection, schedule: Q01DX005 (ip), vehicle: saline with Tween-80): 101 % of control

ClCc1ccc(Cl)c(Cl)c1Cl
T/C (dose: 25.0 mg/kg/injection, schedule: Q01DX009 (ip), vehicle: saline with Tween-80): 100 % of control | T/C [1]: 100 % of control | T/C [2]: 104 % of control | T/C [3]: 100 % of control | T/C [4]: 109 % of control | T/C [5]: 100 % of control

C=C1C(=O)OC2/C=C(\C)CC/C=C(\C=O)C(OC(=O)C(C)C)C(OC(=O)C(C)(C)O)C12 (configuration not stated)
T/C (dose: 5.0 mg/kg/injection, schedule: Q01DX009 (ip), vehicle: other): 116 % of control | T/C (dose: 10.0 mg/kg/injection, schedule: Q01DX009 (ip), vehicle: other): 112 % of control | T/C (dose: 20.0 mg/kg/injection, schedule: Q01DX009 (ip), vehicle: other): 112 % of control

O=C(O)/C=C/c1csc(-c2ccc(Cl)cc2)n1
T/C [2]: 88 % of control | T/C [4]: 88 % of control | T/C (dose: 200.0 mg/kg/injection, schedule: Q01DX009 (ip), vehicle: saline with Tween-80): 106 % of control

CC(C)(C)N1CC1CN (configuration not stated)
T/C (dose: 25.0 mg/kg/injection, schedule: Q01DX009 (ip), vehicle: saline): 100 % of control | T/C (dose: 50.0 mg/kg/injection, schedule: Q01DX009 (ip), vehicle: saline): 107 % of control | T/C (dose: 100.0 mg/kg/injection, schedule: Q01DX009 (ip), vehicle: saline): 105 % of control

c1ccc(C2(c3ccccc3)CCc3ccccc3O2)cc1
T/C (dose: 100.0 mg/kg/injection, schedule: Q04DX003 (ip), vehicle: Klucel (hydroxypropylcellulose) (HPC)): 105 % of control | T/C (dose: 200.0 mg/kg/injection, schedule: Q04DX003 (ip), vehicle: Klucel (hydroxypropylcellulose) (HPC)): 99 % of control | T/C (dose: 400.0 mg/kg/injection, schedule: Q04DX003 (ip), vehicle: Klucel (hydroxypropylcellulose) (HPC)): 99 % of control

COC1/C=C/OC2(C)Oc3c(C)c(O)c4c(O)c(c(C5OCCO5)c(O)c4c3C2=O)NC(=O)/C(C)=C\C=C\C(C)C(O)C(C)C(O)C(C)C(OC(C)=O)C1C (configuration not stated)
T/C [1]: 96 % of control | T/C [3]: 96 % of control | T/C [5]: 96 % of control | T/C (dose: 200.0 mg/kg/injection, schedule: Q04DX003 (ip), vehicle: saline with Tween-80): 104 % of control

CCOC(=O)C1=C(C)NC(=O)NC1c1cccc(OC)c1O (configuration not stated)
T/C (dose: 50.0 mg/kg/injection, schedule: Q01DX005 (ip), vehicle: Klucel (hydroxypropylcellulose) (HPC)): 94 % of control | T/C (dose: 100.0 mg/kg/injection, schedule: Q01DX005 (ip), vehicle: Klucel (hydroxypropylcellulose) (HPC)): 91 % of control | T/C (dose: 200.0 mg/kg/injection, schedule: Q01DX005 (ip), vehicle: Klucel (hydroxypropylcellulose) (HPC)): 97 % of control

COc1ccc(C(=O)Cc2ccccc2C#N)cc1
T/C (dose: 100.0 mg/kg/injection, schedule: Q04DX002 (ip), vehicle: Klucel (hydroxypropylcellulose) (HPC)): 100 % of control | T/C (dose: 200.0 mg/kg/injection, schedule: Q04DX002 (ip), vehicle: Klucel (hydroxypropylcellulose) (HPC)): 99 % of control | T/C (dose: 400.0 mg/kg/injection, schedule: Q04DX002 (ip), vehicle: Klucel (hydroxypropylcellulose) (HPC)): 99 % of control

Cc1c2cc[n+](CCO)cc2c(C)c2c1[nH]c1ccc(O)cc12
T/C (dose: 0.79 mg/kg/injection, schedule: Q04DX003 (ip), vehicle: saline): 155 % of control | T/C (dose: 1.56 mg/kg/injection, schedule: Q04DX003 (ip), vehicle: saline): 165 % of control | T/C (dose: 3.12 mg/kg/injection, schedule: Q04DX003 (ip), vehicle: saline): 165 % of control | T/C (dose: 6.25 mg/kg/injection, schedule: Q04DX003 (ip), vehicle: saline): 155 % of control | T/C (dose: 12.5 mg/kg/injection, schedule: Q04DX003 (ip), vehicle: saline): 100 % of control | T/C (dose: 25.0 mg/kg/injection, schedule: Q04DX003 (ip), vehicle: saline): 92 % of control
